# Measured values reported in US10195197B2, “Combination therapy with glutaminase inhibitors” (Calithera Biosciences, Inc., priority 2016, dated 2019).
# Test system: JIMT-1 tumors
# Assay: JIMT-1 xenograft model, antitumor efficacy (in vivo TNBC model)
# Conditions: single agent paclitaxel, five doses at 10 mg/kg every other day at start of study; initial regression followed by rapid regrowth; P=0.0002
# Experimental: In the JIMT-1 xenograft model, the antitumor efficacy was evaluated by treating established tumors (125 mm^3 at the start of dosing) with CB-839 both as a single agent and in combination with paclitaxel, a standard-of-care chemotherapeutic agent for the treatment of TNBC. The regimen for paclitaxel (five doses at 10 mg/kg delivered every other day at the start of study) was chosen to provide suboptimal efficacy to ensure a window to evaluate the potential impact of combination treatment.
compound,measurement,value
CC(=O)O[C@H]1C(=O)[C@@]2(C)[C@H]([C@H](OC(=O)c3ccccc3)[C@]3(O)C[C@H](OC(=O)[C@H](O)[C@@H](NC(=O)c4ccccc4)c4ccccc4)C(C)=C1C3(C)C)[C@]1(OC(C)=O)CO[C@@H]1C[C@@H]2O [paclitaxel],TGI relative to vehicle control at the end of study,73%
